The values that follow come from US20230390319A1, “INTERFERON GENE STIMULATOR COMPOSITION COMPRISING INDOLIZINE DERIVATIVE AS ACTIVE INGREDIENT” (AJOU UNIVERSITY INDUSTRY-ACADEMIC COOPERATION FOUNDATION, priority 2020, published 2023).

One data set deals with THP-1 cells. As to the kind of experiment: Cell viability assay (CellTiter Clo) in THP-1 cells. Format: cell-based, Human. Conditions: THP-1 cells, 20 μM of each compound, co-treated with cGAMP (1 μg/ml). On the procedure: (§1) Human monocytic THP-1 wild-type (WT) and STING knockout (KO) cell lines were obtained from InvivoGen. Cells were cultured in 1×RPMI 1640 medium containing 10% fetal bovine serum (FBS, Hyclone), 2.05 mM L-glutamine (Hyclone) and 1% penicillin (Corning) in a humidified incubator at 37° C. under 5% CO2.
Cells were analyzed using CellTiter Clo (CTG, Promega). […] was measured using a TECAN micro plate reader SPARK. Results were normalized to DMSO control.
(§2) THP-1 cells were co-treated with each of 86 indolizine derivatives and a very small amount of cGAMP (1 μg/ml), the immune response of the THP-1 cells was examined by ISRE reporter assay, and the cytotoxicity of co-treatment was also evaluated (Table 1). All results were compared by normalization to the reporter assay results obtained by treatment with cGAMP alone. […] Thus, Compound 42 was used in subsequent experiments.

The subject of a further data set is ISRE reporter signal. Briefly: ISRE luciferase reporter assay, THP-1 cells co-treated with compound and cGAMP. The class given is cell-based, Human. The settings on record: THP-1 cells, 20 μM of each compound, co-treated with cGAMP (1 μg/ml), 24 hours. How it is done: as §1
To confirm immune responses, THP-1 cells were placed in 384-well plates (Grenier), and treated with each compound and cGAMP (1 μg/ml), and after 24 hours, ISRE activity was analyzed. QUANTI-Luc assay (InvivoGen) was performed using the cell culture supernatant to confirm the luciferase reporter gene signal. Fluorescent signals were measured using a TECAN micro plate reader SPARK, and the results were normalized to DMSO control.
as §2

Molecules are shown by their SMILES.

With `COc1ccc(-c2cc(C(C)=O)n3ccc(C(C)=O)cc23)cc1` [Compound 81], the Normalized cell viability in the data set with THP-1 cells came to 1.17. Moreover, the “Normalized RU (relative unit of ISRE reporter signal)” value with ISRE reporter signal is reported as 2.27.
Turning to `CC(=O)c1ccn2c(C(C)=O)cc(-c3ccc(N(C)C)cc3)c2c1` [Compound 82], in the data set on THP-1 cells, the Normalized cell viability stood at 1.16. Further, the “Normalized RU (relative unit of ISRE reporter signal)” value in the data set with ISRE reporter signal was found to be 2.57.
The like results for `CC(=O)c1cc(-c2ccc(C(F)(F)F)cc2)c2ccccn12` [Compound 83] were, in that order, 1.22 and 0.98.
For `CC(=O)c1ccc(-c2cc(C(C)=O)n3ccccc23)cc1` [Compound 84] the same measures were 1.10 and 2.37.
For `CC(=O)c1cc(-c2ccccc2)c2ccccn12` [Compound 85] the same measures were 1.22 and 2.90.
Consider `COc1ccc(-c2cc(C(C)=O)n3ccccc23)cc1` [Compound 86], for which the Normalized cell viability in the data set with THP-1 cells is recorded as 1.22. The “Normalized RU (relative unit of ISRE reporter signal)” value in the data set on ISRE reporter signal was 2.46.
The like results for `CC(=O)c1cc(-c2ccc(N(C)C)cc2)c2ccccn12` [Compound 87] were, in that order, 1.30 and 2.59.
